Here are results for 33 molecules from patent publication US9994528B2, “Certain amino-pyridines and amino-triazines, compositions thereof, and methods for their use” (Cytokinetics, Inc., priority 2010, dated 2018).

For this assay, the system named is rabbit skeletal myofibrils (approximately 90% fast fibers). Description: Activation of fast skeletal myofibrils (PUMA coupled-enzyme ATPase assay). Type of assay: biochemical. The conditions noted are these: AC1.4 = concentration at which the compound increased the enzymatic activity by 40%; myofibril suspension at calcium level pCa25; PM12 buffer pH 6.8. The method, then: Preparation of fast skeletal myofibrils. Rabbit skeletal myofibrils were prepared based upon the method of Herrmann et al. (Biochem. 32(28):7255-7263(1993). Myofibrils were prepared from rabbit psoas muscle purchased from Pel-Freez Biologicals (Arkansas) within 2 days of ordering, stored on ice. Minced muscle was homogenized in 10 volumes of ice-cold “standard” buffer (50 mM Tris, pH 7.4, 0.1 M potassium acetate, 5 mM KCl, 2 mM DTT, 0.2 mM PMSF, 10 μM leupeptin, 5 μM pepstatin, and 0.5 mM sodium azide) containing 5 mM EDTA and 0.5% Triton X-100 using an Omni-Macro homogenizer. Myofibrils were recovered by low speed centrifugation (3000 rpm for 10 minutes) and washed 2 times in the Triton X-100 containing buffer to ensure removal of cellular membrane. Following the Triton washes, myofibrils were washed 3 times in “standard” buffer containing 2 mM magnesium acetate. A final wash in assay buffer (12 mM PIPES, pH 6.8, 60 mM KCl, 1 mM DTT) was performed and brought to 10% sucrose for flash freezing in liquid nitrogen and storage at −80° C.
Activation of Fast Skeletal Myofibrils. Fast fiber activators were identified by measuring the enzymatic activity of muscle myofibril preparations using the proprietary PUMA™ (see, e.g., U.S. Pat. Nos. 6,410,254, 6,743,599, 7,202,051, and 7,378,254) assay system. Myofibril preparations consisted of rabbit skeletal muscle (approximately 90% fast fibers) that had been mechanically homogenized and washed with a detergent (triton X-100) to remove cellular membranes. This preparation retained all of the sarcomeric components in a native conformation and the enzymatic activity was still regulated by calcium. Compounds were tested using a myofibril suspension and a level of calcium sufficient to increase enzymatic activity of the myofibrils to 25% of their maximal rate (termed pCa25). Enzymatic activity was tracked via a pyruvate kinase and lactate dehydrogenase-coupled enzyme system. This assay regenerates myosin-produced ADP into ATP by oxidizing NADH, producing an absorbance change at 340 nm. The buffering system was 12 mM Pipes, 2 mM MgCl2, 1 mM DTT at pH 6.8 (PM12 buffer).
Using procedures similar to those described herein, utilizing reagents and intermediates commercially available (e.g., Sigma-Aldrich,) or readily synthesized by one of skill in the art, the compounds in Table 2 were synthesized, characterized and tested. AC1.4 values were determined according to the procedure described in Example 25, and the reported median AC1.4 values are as follows: A=<1 uM; B=1-10 uM; C=10-20 uM; D=>20 uM.
With `NC(=O)c1ccc(F)c(-c2cnc(NC[C@]3(c4ncccc4F)C[C@H](F)C3)nn2)c1` [4-fluoro-3-[3-({[3-fluoro-1-(3-fluoro(2-pyridyl))cyclobutyl]methyl}amino)(1,2,4-triazin-6-yl)]benzamide], the “Mean AC1.4” value is recorded as “A (A=<1 uM)”.

For the molecule `O=C(O)c1ccc(F)c(-c2cnc(NCC3(c4ncccc4F)CCC3)nn2)c1` [4-fluoro-3-[3-({[(3-fluoro(2-pyridyl))cyclobulyl]methyl}amino)(1,2,4-triazin-6-yl)]benzoic acid], the “Mean AC1.4” value is “B (B=1-10 uM)”.

With `NC(=O)c1ccc(F)c(-c2cnc(NCC3(c4ncccc4F)CCC3)nn2)c1` [4-fluoro-3-[3-({[(3-fluoro(2-pyridyl))cyclobutyl]methyl}amino)(1,2,4-triazin-6-yl)]benzamide], the “Mean AC1.4” value is recorded as “A (A=<1 uM)”.

`CC(C)(Nc1ncc(-c2ccc3[nH][nH]c(=O)c3c2)nn1)c1ncccc1F` [5-(3-{[1-(3-fluoro(2-pyridyl))-isopropyl]amino}-1,2,4-triazin-6-yl)-1H-2-hydroindazol-3-one]: the “Mean AC1.4” value was “B (B=1-10 uM)”.

`CC(C)(CNc1ccc(C(N)=O)cn1)c1ccc(F)cc1` [6-{[2-(4-f1uorophenyl)-2-methylpropyl]amino}pyridine-3-carboxamide]: the “Mean AC1.4” value is recorded as “C (C=10-20 uM)”.

`CC(C)(CNc1ccc(C#N)cn1)c1ccc(F)cc1` [6-{[2-(4-fluorophenyl)-2-methylpropyl]amino}pyridine-3-carbonitrile]: the “Mean AC1.4” value is on record as “C (C=10-20 uM)”.

`c1ccc(-c2ccnc(NC3(c4ccccc4)CCC3)c2)cc1` [(4-phenyl(2-pyridyl))(phenylcyclobutyl)amine]: the “Mean AC1.4” value is given as “C (C=10-20 uM)”.

As to `c1ccc(-c2ccc(NC3(c4ccccc4)CCC3)nc2)cc1` [(5-phenyl(2-pyridyl))(phenylcyclobutyl)amine], the “Mean AC1.4” value is “B (B=1-10 uM)”.

On to `CC(C)(CNc1ncc(-c2ccc3[nH]ncc3c2)nn1)c1ncccc1F` [(6-(1H-indazol-5-yl)(1,2,4-triazin-3-yl))[2-(3-fluoro(2-pyridyl))-2-methylpropyl]amine], for which the “Mean AC1.4” value is “C (C=10-20 uM)”.

With `Fc1cccnc1C1(CNc2ncc(-c3ccc4[nH]ncc4c3)nn2)CCC1` [(6-(1H-indazol-5-yl)(1,2,4-triazin-3-yl)){[(3-fluoro(2-pyridyl))cyclobutyl]methyl}amine], the “Mean AC1.4” value is “B (B=1-10 uM)”.

As to `CC(C)(CNc1cccc(Br)n1)c1ccc(F)cc1` [(6-bromo(2-pyridyl))[2-(4-fluorophenyl)-2-methylpropyl]amine], the “Mean AC1.4” value was “C (C=10-20 uM)”.

As to `c1ccc(-c2cccc(NC3(c4ccccc4)CCC3)n2)cc1` [(6-phenyl(2-pyridyl))(phenylcyclobutyl)amine], the “Mean AC1.4” value is “D (D=>20 uM)”.

Consider `CC(C)(Nc1ncc(-c2cc(C(=O)NC[C@H](O)CO)ccc2F)nn1)c1ncccc1F` [N-((2S)-2,3-dihydroxypropyl)[4-fluoro-3-(3-{[1-(3-fluoro(2-pyridyl))-isopropyl]amino}(1,2,4-triazin-6-yl))phenyl]carboxamide], for which the “Mean AC1.4” value is given as “C (C=10-20 uM)”.

Regarding `CC(=O)NCc1cnc(-c2cnc(NC[C@]3(c4ncccc4F)C[C@H](F)C3)nn2)s1` [N-({2-[3-({[3-fluoro-1-(3-fluoro(2-pyridyl))cyclobutyl]methyl}amino)-1,2,4-triazin-6-yl]-1,3-thiazol-5-yl}methyl)acetamide], the “Mean AC1.4” value is listed as “B (B=1-10 uM)”.

In the case of `COC(=O)NCCc1ccc(NCC(C)(C)c2ccc(F)cc2)nc1` [N-[2-(6-{[2-(4-fluorophenyl)-2-methylpropyl]amino}(3-pyridyl))ethyl]methoxycarboxamide], the “Mean AC1.4” value was “D (D=>20 uM)”.

Take `CC(=O)NCCc1ccc(NCC(C)(C)c2ccc(F)cc2)nc1` [N-[2-(6-{[2-(4-fluorophenyl)-2-methylpropyl]amino}-3-pyridyl)ethyl]acetamide]: the “Mean AC1.4” value was “D (D=>20 uM)”.

In the case of `COC(=O)NCc1ccc(NCC(C)(C)c2ccc(F)cc2)nc1` [N-[(6-{[2-(4-fluorophenyl)-2-methylpropyl]amino}(3-pyridyl))methyl]methoxycarboxamide], the “Mean AC1.4” value is recorded as “D (D=>20 uM)”.

Regarding `CC(=O)NCc1cnc(-c2cnc(NC(C)(C)c3ncccc3Cl)nn2)s1` [N-{[2-(3-{[1-(3-chloro(2-pyridyl))-isopropyl]amino}-1,2,4-triazin-6-yl)-1,3-thiazol-5-yl]methyl}acetamide], the “Mean AC1.4” value is “D (D=>20 uM)”.

`CC(=O)NCc1ccc(F)c(-c2cnc(NC(C)(C)c3ncccc3F)nn2)c1` [N-{[4-fluoro-3-(3-{[1-(3-fluoro(2-pyridyl))-isopropyl]amino}(1,2,4-triazin-6-yl))phenyl]methyl}acetamide]: the “Mean AC1.4” value is reported as “D (D=>20 uM)”.

Turning to `CC(C)(Nc1ncc(-c2nccs2)nn1)c1ncccc1F` [[1-(3-fluoro(2-pyridyl))-isopropyl](6-(1,3-thiazol-2-yl)(1,2,4-triazin-3-yl))amine], the “Mean AC1.4” value is “D (D=>20 uM)”.

In the case of `CC(C)(Nc1ncc(-c2ncc(CO)s2)nn1)c1ncccc1Cl` [[2-(3-{[1-(3-chloro(2-pyridyl))-isopropyl]amino}-1,2,4-triazin-6-yl)-1,3-thiazol-5-yl]methan-1-ol], the “Mean AC1.4” value was “D (D=>20 uM)”.

Take `CC(C)=Cc1cccc(NCC(C)(C)c2ccc(F)cc2)n1` [[2-(4-fluorophenyl)-2-methylpropyl][6-(2-methylprop-1-enyl)(2-pyridyl)]amine]: the “Mean AC1.4” value is listed as “D (D=>20 uM)”.

Take `CC(C)(CNc1ccc(CCNS(C)(=O)=O)cn1)c1ccc(F)cc1` [[2-(6-{[2-(4-fluorophenyl)-2-methylpropyl]amino}(3-pyridyl))ethyl](methylsulfonyl)amine]: the “Mean AC1.4” value was “D (D=>20 uM)”.

In the case of `CC(C)(CNc1cc(-c2ccc(F)cc2)ccn1)c1ccc(F)cc1` [[4-(4-fluorophenyl)(2-pyridyl)][2-(4-fluorophenyl)-2-methylpropyl]amine], the “Mean AC1.4” value is “D (D=>20 uM)”.

Take `CC(C)(Nc1ncc(-c2cc(NS(C)(=O)=O)ccc2F)nn1)c1ncccc1F` [[4-fluoro-3-(3-{[1-(3-fluoro(2-pyridyl))-isopropyl]amino}(1,2,4-triazin-6-yl))phenyl](methylsulfonyl)amine]: the “Mean AC1.4” value is listed as “C (C=10-20 uM)”.

With `CC(C)(Nc1ncc(-c2cc(CO)ccc2F)nn1)c1ncccc1F` [[4-fluoro-3-(3-{[1-(3-fluoro(2-pyridyl))-isopropyl]amino}(1,2,4-triazin-6-yl))phenyl]methan-1-ol], the “Mean AC1.4” value is on record as “C (C=10-20 uM)”.

With `CC(C)(CNc1ncc(-c2ccc3[nH]nc(N)c3c2)nn1)c1ccc(F)cc1` [[6-(3-amino(1H-indazol-5-yl))(1,2,4-triazin-3-yl)][2-(4-fluorophenyl)-2-methylpropyl]amine], the “Mean AC1.4” value is reported as “A (A=<1 uM)”.

On to `Nc1n[nH]c2ccc(-c3cnc(NCC4(c5ncccc5F)CCC4)nn3)cc12` [[6-(3-amino(1H-indazol-5-yl))(1,2,4-triazin-3-yl)]{[(3-fluoro(2-pyridyl))cyclobutyl]methyl}amine], for which the “Mean AC1.4” value is listed as “B (B=1-10 uM)”.

`CC(C)(Nc1ncc(-c2cc(N)ccc2F)nn1)c1ncccc1F` [[6-(3-amino-6-fluorophenyl)(1,2,4-triazin-3-yl)][1-(3-fluoro(2-pyridyl))-isopropyl]amine]: the “Mean AC1.4” value is “B (B=1-10 uM)”.

As to `CC(C)(CNc1cccc(-c2ccc(F)cc2)n1)c1ccc(F)cc1` [[6-(4-fluorophenyl)(2-pyridyl)][2-(4-fluorophenyl)-2-methylpropyl]amine], the “Mean AC1.4” value is on record as “D (D=>20 uM)”.

For the molecule `CC(C)(Nc1ncc(-c2cc(NS(N)(=O)=O)ccc2F)nn1)c1ncccc1F` [amino[4-fluoro-3-(3-{[1-(3-fluoro(2-pyridyl))-isopropyl]amino}(1,2,4-triazin-6-yl))phenyl]sulfonamide], the “Mean AC1.4” value is “B (B=1-10 uM)”.

Take `COC(=O)c1ccc(F)c(-c2cnc(NCC(C)(C)c3ncccc3Cl)nn2)c1` [methyl 3-(3-{[2-(3-chloro(2-pyridyl))-2-methylpropyl]amino}(1,2,4-triazin-6-yl))-4-fluorobenzoate]: the “Mean AC1.4” value is listed as “D (D=>20 uM)”.

As for `COC(=O)c1ccc(F)c(-c2cnc(NCC3(c4ncccc4Cl)CCC3)nn2)c1` [methyl 3-[3-({[(3-chloro(2-pyridyl))cyclobutyl]methyl}amino)(1,2,4-triazin-6-yl)]-4-fluorobenzoate], the “Mean AC1.4” value is given as “B (B=1-10 uM)”.
